The text below walks through data of patent US20170240864A1, “METHODS TO GENERATE PANCREATIC BETA CELLS FROM SKIN CELLS” (UNIVERSITY OF IOWA RESEARCH FOUNDATION, priority 2016, published 2017).

Entries after “also recorded” stand apart in the source; their conditions may differ.

Test [1] has as its system 5-methylcytosine content of gDNA of T1D iPS cells. The test is described as follows: Dot blot for 5-methylcytosine on gDNA. It is filed as cell-based, human. The protocol: FIGS. 14A-14B. Selection of the optimal dose of 5-aza-DC to demethylate iPS cells while ensuring maximal cell viability. FIG. 14A) Every cell type has a unique tolerance to 5-aza-DC, which is toxic at high doses. In order to identify an optimal dose of 5-aza-DC that would maintain integrity of the cells while demethylating effectively, a dose screen experiment was conducted on T1D iPS cells (n=2), observing the quality of the colonies and degree of cell death over 4 days after 18 hours of treatment with various doses of 5-aza-DC. […] FIG. 14B) To confirm that those low doses would still demethylate cells, a dot blot for 5-methylcytosine was performed on gDNA isolated from untreated T1D iPS cells or iPS cells that were treated with 1 nM or 10 nM 5-aza-DC (n=3).
To detect the effectiveness of demethylation treatment, dot blots were performed on genomic DNA (gDNA) samples isolated from demethylated and nondemethylated control iPS cells to determine levels of 5-methylcytosine (5-MC). gDNA was isolated using the DNeasy Blood & Tissue Kit (Qiagen, Valencia, Calif.). […] Finally, HRP signal was detected with a 5 minute incubation at room temperature in Amersham ECL Prime solution (Catalog Number: RPN2232, GE Healthcare, Pittsburgh, Pa.) and processed via X-ray films.

The test system of test [2] is T1D DE cells (T1D iPS cell-derived). The test is described as follows: Pdx1 flow cytometry at end of Stage 4, T1D cultures. It is filed as cell-based, human. The following applies: T1D DE cells demethylated on day 4 for 18 h. The protocol: (§1) After completing 4 days of differentiation in DE differentiation media, the cells were treated with fresh media supplemented with 5-aza-DC. The 5-aza-DC was treated for 18 hours, which spanned the last day of DE differentiation, before being washed with warm DMEM F/12 three times and harvested as described in the next section for initiating 3D differentiation into pancreatic precursor cells.
(§2) For assessment of expression of pancreatic transcription factors (Pdx1, Nkx6.1 and NeuroD1), matrigel-seeded differentiating cell clusters on differentiation D15 (end of stage 4) were recovered by treatment with Dispase (Catalog Number: 354235, BD Biosciences, San Jose, Calif.) for 5 minutes at 37° C., followed by gentle suspension to further break down the matrigel. After washing with 1×PBS and centrifugation, the cell clusters were incubated with TrypLE Express for 5-10 minutes at room temperature. Following gentle resuspension and centrifugation, the cells were permeabilized using methanol as described below. The cells were fixed in 2% paraformaldehyde in PBS for 10 minutes at 37° C., followed by centrifugation, and resuspension of the vortexed cells in 1 mL of chilled Perm Buffer III (Catalog Number: 558050, BD Biosciences, San Jose, Calif.). The cells were incubated for 30 minutes on ice in sealed tubes. […]
(In flow cytometry, cells or beads pass a laser one at a time.)

The test system of test [3] is T1D iPS cells differentiating into DE cells. The test is described as follows: Definitive endoderm marker flow cytometry after demethylation (CXCR4, Sox17, PDGFR-α). It is filed as cell-based, human.
Description: FIG. 15. Demethylation on DO of differentiation arrests cells in a CXCR4+ PDGFRα+ Sox17− mesendodermal state. In order to identify the optimal time point at which demethylation should be initiated, two parallel differentiations of T1D iPS cells into DE cells were established. In one differentiation, the culture was exposed to 5-aza-DC on day 0 (which is the day that DE differentiation is initiated), whereas the other culture was demethylated at day 4 of differentiation (which is the last day of DE culture). At the end of the differentiations, the efficacy of DE cell differentiation was determined by studying the expression of CXCR4, PDGFR-α, and Sox17. Undifferentiated iPS cells (red plot) served as a negative control for all of these cell markers. […] In contrast, demethylation of the cells on day 4 (blue plot) generated >90% CXCR4+ Sox17+ PDGFR-α− cells, representing true DE cells. […] Besides, after formation of the DE, the cells have a higher proliferative rate. Thus, temporal control of the demethylation treatment ensures enhanced differentiation outcomes.
as §1
For assessment of DE differentiation efficiency, cells from D5 of differentiation (end of stage 1) were incubated at room temperature for 2-5 minutes with TrypLE Express (Invitrogen, Grand Island, N.Y.), dissociated into a single cell suspension, filtered through a 70 μm mesh and washed with 1×PBS (Invitrogen, Grand Island, N.Y.) before being distributed into FACS tubes. […]

The test system of test [4] is ND iPS cells. In words: Pdx1 flow cytometry, ND cultures. It is filed as cell-based, human. As to conditions: 10 nM for 18 h on day 4. As to the method: (§3) FIGS. 18A-18B. […] To address whether demethylation enhances the yield of Pdx1+ cells and insulin+ cells from ND iPS cells, in parallel, differentiations of ND iPS cells, treated with or without 10 nM 5-aza-DC for 18 h on day 4 of differentiation (n=2) were established. Controls for staining were iPS cells (negative) and βTC3 mouse insulinoma cells (positive). […] Thus, demethylation enhances the differentiation into IPCs of specifically T1D iPS cells but not ND iPS cells. This is likely because there are specific gene loci on T1D cells that are aberrantly methylated, which is corrected by transient 5-aza-DC treatment.
as §2, with “below.” for “below. The cells were fixed in 2% paraformaldehyde in PBS for 10 minutes at 37° C., followed by centrifugation, and resuspension of the vortexed cells in 1 mL of chilled Perm Buffer III (Catalog Number: 558050, BD Biosciences, San Jose, Calif.). The cells were incubated for 30 minutes on ice in sealed tubes.”

For test [5], the system named is ND iPS cells. The test is described as follows: Insulin flow cytometry at end of Stage 5, ND cultures. It is filed as cell-based, human. The protocol: as §3
For assessment of expression of pancreatic hormones insulin and glucagon, matrigel-seeded differentiating cell clusters on differentiation D27 (end of stage 5) were recovered by treatment with Dispase (Catalog Number: 354235, BD Biosciences, San Jose, Calif.) for 5 minutes at 37° C., followed by gentle suspension to further break down the matrigel. After washing with 1×PBS and centrifugation, the cell clusters were incubated with TrypLE Express for 5-10 minutes at room temperature. Following gentle resuspension and centrifugation, the cells were permeabilized via saponin using the BD Cytofix/Cytoperm Kit (Catalog Number: 554714, BD Biosciences, San Jose, Calif.). […]

The test system of test [6] is T1D iPS cell-derived cell clusters. In words: Cluster morphology and dithizone staining of T1D IPC cultures. It is filed as cell-based, human. The protocol: Freshly prepared dithizone solution was used for all experiments. First, 20 mg of dithizone (Catalog Number: D5130, Sigma-Aldrich, St. Louis, Mo.) was added to 0.6 mL of 95% ethanol in a 15 mL conical tube. Subsequently, 1-5 drops of ammonium hydroxide was added and the resulting orange stock mixture was vortexed thoroughly until completely dissolved. 0.3 mL of this stock solution was dispensed in 99.7 mL of 1×PBS and the pH was adjusted to 7.4 with 1N HCl. Islets (supplied by the IIDP) or picked IPC clusters were added to separate wells each containing 200 μL of the final dithizone solution in a 96 well plate. The cell clusters were incubated for 2-5 minutes before images were captured using a standard light microscope (Nikon Eclipse, TS100) attached to a color camera.
A full differentiation of T1D iPS cells into IPCs was initiated, demethylating the DE cells on day 4 for 18 hours before transferring them onto matrigel. A striking impact of the demethylation treatment in the T1D cultures was observed. Typically, T1D iPS cells gave rise to a disorganized mix of cysts and spheroids, with a dominant presence of hollow cysts. […] Next, these cell clusters were stained with dithizone, which when positive points to the presence of insulin Shiroi et al., 2002).

The test system of test [7] is T1D DE cells (T1D iPS cell-derived). In words: Insulin and glucagon flow cytometry at end of Stage 5, T1D cultures. It is filed as cell-based, human. As to conditions: for number of glucagon-expressing cells: T1D cultures, concentration-dependent. As to the method:
as §1
For assessment of expression of pancreatic hormones insulin and glucagon, matrigel-seeded differentiating cell clusters on differentiation D27 (end of stage 5) were recovered by treatment with Dispase (Catalog Number: 354235, BD Biosciences, San Jose, Calif.) for 5 minutes at 37° C., followed by gentle suspension to further break down the matrigel. After washing with 1×PBS and centrifugation, the cell clusters were incubated with TrypLE Express for 5-10 minutes at room temperature. Following gentle resuspension and centrifugation, the cells were permeabilized via saponin using the BD Cytofix/Cytoperm Kit (Catalog Number: 554714, BD Biosciences, San Jose, Calif.). For insulin staining, the cells were incubated with anti-inulin-PE for 30 minutes in the dark at room temperature before being washed and resuspended in 1×PBS for flow cytometric analysis. For glucagon staining, the cells were incubated with purified rabbit anti-human glucagon for 30 minutes in the dark at room temperature before being washed and incubated with anti-rabbit APC (1:100) for an additional 30 minutes in the dark at room temperature. Subsequently, the cells were washed and resuspended in 1×PBS for flow cytometric analysis.

In test [8] the test system is Human iPS cell-derived IPCs. The test is described as follows: Mitochondria stress test (oxygen consumption rate). It is filed as cell-based. The following applies: low glucose (2.8 mM). The protocol:
Oxygen consumption rate (OCR) was measured by using an intact-cell respirometer designed for adherent cells (Seahorse Bioscience, North Billerica, Mass.). Human iPS cell-derived IPCs were grown in special 24-well plates designed for respirometer analyses. OCR was determined in assay medium consisting of medium M199 lacking sodium bicarbonate for 60 minutes. Before analysis, IPCs within individual wells were exposed to either, low glucose (2.8 mM), high glucose (20 mM), high glucose (20 mM)+Nifedipine. […] The FCCP concentration used in these studies was determined by titration with differing amounts of the uncoupler by using the least amount required for maximal uncoupling in cells unexposed to MTQAs. OCR (pmol per minute per microgram of DNA) was determined as the average number recorded during time periods defined as intervals between the above sequential injections. Basal OCR was determined as respiration before injection of any compounds minus non-mitochondrial OCR. OCRATP was determined as basal OCR minus OCR after oligomycin injection. OCR accountable by the proton leak was calculated as OCR in the presence of oligomycin minus non-mitochondrial OCR. Maximal uncoupled respiration was calculated as OCR after FCCP minus non-mitochondrial OCR. […] ECAR was quantified simply as the recorded acidification rate during the respiratory conditions delineated above.

Setting [9] is: demethylation on day 4 of differentiation.

`Nc1ncn([C@H]2C[C@H](O)[C@@H](CO)O2)c(=O)n1` [5-aza-DC, 5-aza-2′-deoxycytidine]: the “demethylation (5-methylcytosine dot blot)” value in test [1] (1 nM) and in test [1] (10 nM) was “effectively demethylate” in each case. Also, in test [2], the “Pdx1+ cells at the end of Stage 4” value is above 95%. Besides, the “marker phenotype of resulting cells” value in test [3] (demethylation on day 0 of differentiation) was “arrested in the immature CXCR4^+ PDGFRα^+ Sox17^− mesendodermal state; also recorded: CXCR4+ PDGFR-α+ Sox17−”; in test [3] (setting [9]), “pure population of CXCR4^+ Sox17^+ PDGFRα^− DE cells”. Moreover, the “CXCR4+ Sox17+ PDGFR-α− cells” value in test [3] (setting [9]) is above 90%. Further, in the test on ND iPS cells [4], the “yield of Pdx1+ cells, treated versus untreated” value is “not significantly different”. For the same molecule, in the test on ND iPS cells [5] (10 nM for 18 h on day 4), the “yield of insulin-expressing cells, treated versus untreated” value was “equivalent yield”. In addition, the “yield of Insulin+ cells at the end of Stage 5” value in the test on ND iPS cells [5] (unchanged after treatment) turned out to be 25%. In addition, in test [6] (T1D DE cells treated on day 4, both doses (1 nM, 10 nM)), the cluster morphology result was “promoted the formation of compact cell clusters that uniquely resembled human islets; also recorded: promotes the formation of compact clusters”. The “dithizone staining of clusters” value in test [6] (T1D cultures treated with 5-aza-DC) is “strong red color”. Besides, in test [7] (T1D cultures treated with 5-Aza-DC, n=5), the insulin-expressing cells was 56.7-59.4%. Further, the figures for the “number of glucagon-expressing cells” value in test [7] and in test [7] (listed as 5-Aza-DC) were “nearly all the glucagon secreting cells are gone” and “drastic decline”, respectively. The “insulin+ cells, highest measured in some cultures” value in test [7] (T1D, 10 nM, repeated experiments) is at most 65%. The molecule also returned a cells expressing insulin in test [7] (T1D, dose of 10 nM) of 56%. Further, the “augmentation of yield of IPCs versus untreated” value in test [7] (T1D-1 DE cells, pooled experiments, untreated n=3, demethylated n=5) is around 4 fold.
`CC(C)Cn1c(=O)n(C)c(=O)c2[nH]cnc21` [IBMX, 3-isobutyl-1-methylxanthine]: in test [8], the “effect on oxygen consumption” value was “could not be increased; also recorded: could not be elevated”.
